Laboratory results as given in article PMC4012739, “Targeted inhibition of cell-surface serine protease Hepsin blocks prostate cancer bone metastasis” (Oncotarget, 2014).

Target: T1, Hepsin (Homo sapiens, UniProt P05981)
T1 construct: gene HPN; Extracellular part of human Hepsin (amino acids 45-417), SRCR and trypsin-like serine protease domains
Test: chromogenic peptide (pyroGlu-Pro-Arg-pNA) protease assay with purified recombinant Hepsin; also pro-HGF cleavage
Assay type: biochemical

T1 sequence (P05981 45-162): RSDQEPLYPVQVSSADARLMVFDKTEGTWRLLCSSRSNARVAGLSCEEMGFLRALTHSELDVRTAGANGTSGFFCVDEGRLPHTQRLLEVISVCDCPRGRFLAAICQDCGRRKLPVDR
T1 sequence (P05981 163-417): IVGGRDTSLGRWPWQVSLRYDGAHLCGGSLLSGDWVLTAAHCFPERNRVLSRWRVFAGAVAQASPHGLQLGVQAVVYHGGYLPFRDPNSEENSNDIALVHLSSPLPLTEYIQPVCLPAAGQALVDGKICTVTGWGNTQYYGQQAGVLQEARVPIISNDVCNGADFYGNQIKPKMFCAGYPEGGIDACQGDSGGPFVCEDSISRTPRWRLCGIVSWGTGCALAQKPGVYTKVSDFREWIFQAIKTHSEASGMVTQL

IC50: 330 nM
Structure (SMILES): Brc1ccc(C2Nc3cccc4cccc(c34)N2)cc1 [HepIn-13]
